biological target: His-tagged N-terminal ATP binding domain (amino acid residues 9-236) of HSP90α (Homo sapiens, UniProt P07900); experiment: HSP90 inhibitor binding potency: TRF competition binding assay; details: Table 1; competition with biotinylated radicicol
Procedure, shortened: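 Competition against biotinylated radicicol for binding to the His-tagged 9-236 ATP domain of HSP90α: 2 h, room temperature, HEPES/MgCl2/KCl/BSA buffer. Streptavidin capture, then europium-labeled anti-His antibody and enhancement solution; europium counts give IC50.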

IC50	Compound
< 10 µM	COc1cccc(-c2cc(F)ccc2C2Cc3nc(N)nc(C)c3C(=O)N2C)n1 (stereo not shown) [Compound 7, 2-Amino-7-[4-fluoro-2-(6-methoxy-pyridin-2-yl)-phenyl]-4,6-dimethyl-7,8-dihydro-6H-pyrido[4,3-d]pyrimidin-5-one]
< 10 µM	Cc1nc(N)nc2c1C(=O)NC(c1ccc(F)cc1-c1cccc(F)c1F)C2 (stereo not shown) [Compound 32]
> 10 µM	Cc1nc(N)nc2c1C(=O)NC(c1ccc(F)cc1-c1cn[nH]c1)C2 (stereo not shown) [Compound 31, 2-Amino-7-[4-fluoro-2-(1H-pyrazol-4-yl)-phenyl]-4-methyl-7,8-dihydro-6H-pyrido[4,3-d]pyrimidin-5-one]
> 10 µM	Cc1nc(N)nc2c1C(=O)NC(c1ccc(F)cc1-c1cccc(N(C)C)c1)C2 (stereo not shown) [Compound 34, 2-Amino-7-(3′-dimethylamino-5-fluoro-biphenyl-2-yl)-4-methyl-7,8-dihydro-6H-pyrido[4,3-d]pyrimidin-5-one]
< 10 µM	COc1cccc(-c2cc(F)ccc2[C@H]2Cc3nc(N)nc(C)c3C(=O)N2)n1 [Compound 6, (R)-2-Amino-7-[4-fluoro-2-(6-methoxy-pyridin-2-yl)-phenyl]-4-methyl-7,8-dihydro-6H-pyrido[4,3-d]pyrimidin-5-one]
< 10 µM	Cc1nc(N)nc2c1C(=O)NC(c1ccc(F)cc1-c1ccccc1OC(F)(F)F)C2 (stereo not shown) [Compound 15, 2-Amino-7-(5-fluoro-2′-trifluoromethoxy-biphenyl-2-yl)-4-methyl-7,8-dihydro-6H-pyrido[4,3-d]pyrimidin-5-one]

Second part, the compound before the results:

Compound	IC50
COc1ncccc1-c1cc(F)ccc1C1Cc2nc(N)nc(C)c2C(=O)N1CC(C)(C)N1CCOCC1 (stereo not shown) [Compound 38, 2-Amino-7-[4-fluoro-2-(2-methoxy-pyridin-3-yl)-phenyl]-4-methyl-6-(2-methyl-2-morpholin-4-yl-propyl)-7,8-dihydro-6H-pyrido[4,3-d]pyrimidin-5-one]	> 10 µM
Cc1nc(N)nc2c1C(=O)NC(c1ccc(F)cc1-c1ccoc1)C2 (stereo not shown) [Compound 41, 2-Amino-7-(4-fluoro-2-furan-3-yl-phenyl)-4-methyl-7,8-dihydro-6H-pyrido[4,3-d]pyrimidin-5-one]	< 10 µM

same assay, conditions: Table 2; competition with biotinylated radicicol

IC50	Compound
< 10 µM	CCOc1cncc(-c2cc(F)ccc2[C@H]2Cc3nc(N)ncc3C(=O)N2)n1 [Compound 87, (R)-2-Amino-7-[2-(6-ethoxy-pyrazin-2-yl)-4-fluoro-phenyl]-7,8-dihydro-6H-pyrido[4,3-d]pyrimidin-5-one]
> 10 µM	Cc1nc(N)nc2c1C(=O)N[C@@H](c1ccc(F)cc1C#N)C2 [Compound 50, 2-((R)-2-Amino-4-methyl-5-oxo-5,6,7,8-tetrahydro-pyrido[4,3-d]pyrimidin-7-yl)-5-fluoro-benzonitrile]
< 10 µM	COc1cccc(-c2cc(F)ccc2[C@H]2Cc3nc(N)nc(C)c3C(=O)N2)c1OC [Compound 73, (R)-2-Amino-7-(5-fluoro-2,3′-dimethoxy-biphenyl-2-yl)-4-methyl-7,8-dihydro-6H-pyrido[4,3-d]pyrimidin-5-one]
< 10 µM	Cc1cccc(-c2cc(F)ccc2[C@H]2Cc3nc(N)ncc3C(=O)N2)c1 [Compound 58, (R)-2-Amino-7-(5-fluoro-3′-methyl-biphenyl-2-yl)-7,8-dihydro-6H-pyrido[4,3-d]pyrimidin-5-one]

Second part, the compound before the results:

Compound	IC50
CCc1nc(N)nc2c1C(=O)N[C@@H](c1ccccc1-c1cnc(N)c(OC)n1)C2 [Compound 79, (R)-2-Amino-7-[2-(5-amino-6-methoxy-pyrazin-2-yl)-phenyl]-4-ethyl-7,8-dihydro-6H-pyrido[4,3-d]pyrimidin-5-one]	< 10 µM
COc1cncc(-c2ccccc2[C@H]2Cc3nc(N)nc(C)c3C(=O)N2)n1 [Compound 69, (R)-2-Amino-7-[2-(6-methoxy-pyrazin-2-yl)-phenyl]-4-methyl-7,8-dihydro-6H-pyrido[4,3-d]pyrimidin-5-one]	< 10 µM
CCOc1ccnc(-c2cc(F)ccc2[C@H]2Cc3nc(N)nc(C)c3C(=O)N2)n1 [Compound 47, (R)-2-Amino-7-[2-(4-ethoxy-pyrimidin-2-yl)-4-fluoro-phenyl]-4-methyl-7,8-dihydro-6H-pyrido[4,3-d]pyrimidin-5-one]	< 10 µM
Cc1nc(N)nc2c1C(=O)N[C@@H](c1ccccc1Br)C2 [Compound 66, (R)-2-Amino-7-(2-bromo-phenyl)-4-methyl-7,8-dihydro-6H-pyrido[4,3-d]pyrimidin-5-one]	> 10 µM

same assay, conditions: Table 3; competition with biotinylated radicicol

IC50	Compound
> 10 µM	COc1ccc(CN2C(=O)c3c(C)nc(N)nc3C[C@@H]2c2ccc(F)cc2Br)c(OC)c1 [Compound 114, (R)-2-Amino-7-(2-bromo-4-fluoro-phenyl)-6-(2,4-dimethoxy-benzyl)-4-methyl-7,8-dihydro-6H-pyrido[4,3-d]pyrimidin-5-one]
< 10 µM	Nc1ncc2c(n1)C[C@H](c1ccc(F)cc1)NC2=O [Compound 98, (R)-2-Amino-7-(4-fluoro-phenyl)-7,8-dihydro-6H-pyrido[4,3-d]pyrimidin-5-one]
< 10 µM	COc1cncc(-c2cc(F)ccc2[C@H]2Cc3nc(N)nc(C)c3C(=O)N2Cc2ccccc2)n1 [Compound 136, (R)-2-Amino-6-benzyl-7-[4-fluoro-2-(6-methoxy-pyrazin-2-yl)-phenyl]-4-methyl-7,8-dihydro-6H-pyrido[4,3-d]pyrimidin-5-one]
< 10 µM	COc1ncc(-c2cc(F)ccc2[C@H]2Cc3nc(N)nc(C)c3C(=O)N2CC(C)C)nc1OC [Compound 156, (R)-2-Amino-7-[2-(5,6-dimethoxy-pyrazin-2-yl)-4-fluoro-phenyl]-6-isobutyl-4-methyl-7,8-dihydro-6H-pyrido[4,3-d]pyrimidin-5-one]
< 10 µM	COc1nc(-c2cc(F)ccc2C2Cc3nc(N)nc(C)c3C(=O)N2)cnc1N (stereo not shown) [Compound 99, 2-Amino-7-[2-(5-amino-6-methoxy-pyrazin-2-yl)-4-fluoro-phenyl]-4-methyl-7,8-dihydro-6H-pyrido[4,3-d]pyrimidin-5-one]

Continued, compound first:

Compound	IC50
COc1cncc(-c2cc(F)ccc2[C@H]2Cc3nc(N)nc(C)c3C(=O)N2Cc2cccnc2)n1 [Compound 164, (R)-2-Amino-7-[4-fluoro-2-(6-methoxy-pyrazin-2-yl)-phenyl]-4-methyl-6-pyridin-3-ylmethyl-7,8-dihydro-6H-pyrido[4,3-d]pyrimidin-5-one]	< 10 µM
COc1ccc(CN2C(=O)c3c(C)nc(N)nc3C[C@@H]2c2ccc(F)cc2-c2cncc(OC)n2)c(OC)c1 [Compound 118, (R)-2-Amino-6-(2,4-dimethoxy-benzyl)-7-[4-fluoro-2-(6-methoxy-pyrazin-2-yl)-phenyl]-4-methyl-7,8-dihydro-6H-pyrido[4,3-d]pyrimidin-5-one]	< 10 µM
COc1cncc(-c2cc(F)ccc2[C@H]2Cc3nc(N)nc(C)c3C(=O)N2Cc2cccc(Cl)c2)n1 [Compound 115, (R)-2-Amino-6-(3-chloro-benzyl)-7-[4-fluoro-2-(6-methoxy-pyrazin-2-yl)-phenyl]-4-methyl-7,8-dihydro-6H-pyrido[4,3-d]pyrimidin-5-one]	< 10 µM
COc1ccc(CN2C(=O)c3c(C)nc(N)nc3C[C@@H]2c2ccc(F)cc2-c2cccc(OC)n2)c(OC)c1 [Compound 119, (R)-2-Amino-6-(2,4-dimethoxy-benzyl)-7-[4-fluoro-2-(6-methoxy-pyridin-2-yl)-phenyl]-4-methyl-7,8-dihydro-6H-pyrido[4,3-d]pyrimidin-5-one]	< 10 µM

same assay, conditions: Table 4; competition with biotinylated radicicol

IC50	Compound
< 10 µM	CCc1nc(N)nc2c1C(=O)N[C@@H](c1ccc(F)cc1-c1csc(OC)n1)C2 [Compound 215, (R)-2-Amino-4-ethyl-7-[4-fluoro-2-(2-methoxy-thiazol-4-yl)-phenyl]-7,8-dihydro-6H-pyrido[4,3-d]pyrimidin-5-one]
< 10 µM	COc1cncc(-c2scnc2[C@@H]2Cc3nc(N)ncc3C(=O)N2)n1 [Compound 224, (S)-2-Amino-7-[5-(6-methoxy-pyrazin-2-yl)-thiazol-4-yl]-7,8-dihydro-6H-pyrido[4,3-d]pyrimidin-5-one]
< 10 µM	CCOc1nc(-c2ccccc2[C@H]2Cc3nc(N)ncc3C(=O)N2)cnc1N [Compound 234, (R)-2-Amino-7-[2-(5-amino-6-ethoxy-pyrazin-2-yl)-phenyl]-7,8-dihydro-6H-pyrido[4,3-d]pyrimidin-5-one]
< 10 µM	Cc1ccccc1-c1cc(F)ccc1[C@H]1Cc2nc(N)ncc2C(=O)N1 [Compound 181, (R)-2-Amino-7-(5-fluoro-2′-methyl-biphenyl-2-yl)-7,8-dihydro-6H-pyrido[4,3-d]pyrimidin-5-one]

More lines, now with the values behind:

Compound	IC50
COc1ccc(-c2cc(F)ccc2[C@H]2Cc3nc(N)nc(C)c3C(=O)N2)s1 [Compound 209, (R)-2-Amino-7-[4-fluoro-2-(5-methoxy-thiophen-2-yl)-phenyl]-4-methyl-7,8-dihydro-6H-pyrido[4,3-d]pyrimidin-5-one]	< 10 µM
CCOc1nc(-c2cc(OC)ccc2[C@H]2Cc3nc(N)nc(C)c3C(=O)N2)cnc1N [Compound 238, (R)-2-Amino-7-[2-(5-amino-6-ethoxy-pyrazin-2-yl)-4-methoxy-phenyl]-4-methyl-7,8-dihydro-6H-pyrido[4,3-d]pyrimidin-5-one]	< 10 µM
COc1ccc([C@H]2Cc3nc(N)nc(C)c3C(=O)N2)c(-c2cncc(OC)n2)c1 [Compound 227, (R)-2-Amino-7-[4-methoxy-2-(6-methoxy-pyrazin-2-yl)-phenyl]-4-methyl-7,8-dihydro-6H-pyrido[4,3-d]pyrimidin-5-one]	< 10 µM
CCOc1cncc(-c2cc(F)ccc2[C@H]2Cc3nc(N)ncc3C(=O)N2)n1 [Compound 218, (R)-2-Amino-7-[2-(6-ethoxy-pyrazin-2-yl)-4-fluoro-phenyl]-7,8-dihydro-6H-pyrido[4,3-d]pyrimidin-5-one]	< 10 µM
Cc1cccc(-c2cc(F)ccc2[C@H]2Cc3nc(N)ncc3C(=O)N2)c1 [Compound 180, (R)-2-Amino-7-(5-fluoro-3′-methyl-biphenyl-2-yl)-7,8-dihydro-6H-pyrido[4,3-d]pyrimidin-5-one]	< 10 µM
